Experimental data: publication PMC7692923, “Co-Ingestion of Black Carrot and Strawberry. Effects on Anthocyanin Stability, Bioaccessibility and Uptake” (Foods, 2020)

Tests used:
Type in all cases: in vitro ADME
[1] = Gastric stability of anthocyanins in extracts, standardized in vitro digestion (simulated gastric fluid, pepsin, pH 3.0); conditions: for Gastric stability: % of undigested
Method: (§1) A standardized in vitro digestion procedure was applied to each sample [20]. For the gastric phase, 7.5 mL of a simulated gastric fluid (in mM: KCl 6.9, KH2PO4 0.9, NaHCO3 25, NaCl 47.2, MgCl2(H2O) 0.1, (NH4)2CO3 0.5, pH 3.0), 5 µL of CaCl2 (0.3 M) and 1.6 mL of porcine pepsin solution (25,000 U/mL) were added and the pH of was adjusted to 3.0 using HCl (1 M). Demineralized water was added to the gastric chyme to complete a volume of 20 mL. Nitrogen was flushed into the headspace of the tubes before incubation at 37 °C during 2 h in the dark, while end-over-end rotation (40 rpm). For the intestinal phase simulation, the gastric chyme was mixed with 11 mL of simulated intestinal fluid (in mM: KCl 6.8, KH2PO4 0.8, NaHCO3 85, NaCl 38.4, MgCl2(H2O) 0.33, pH 7.0), 40 µL of CaCl2, 5 mL of pancreatin solution (800 U/mL based on trypsin activity) and 2.5 mL of bile solution (160 mM). NaOH (1 M) was used to adjust the pH to 7 and water to complete the volume until 40 mL. Prior to incubation in the dark, at 37 °C, 2 h, end-over-end rotation, the headspace of the tubes was flushed with nitrogen.
(§2) Aliquots from gastric and intestinal digests were sampled along black carrot and strawberry extracts digestion, stabilized by acidification with formic acid and stored at −20 °C until further analysis. Stability (%) was calculated as indicated by Equations (1) and (2). (1) Gastric stability (%)=(anthocyanin (mg·100 mL^−1) after gastric digestion)/(anthocyanin (mg·100 mL^−1) before digestion)×100 (2) Intestinal stability (%)=(anthocyanin (mg·100 mL^−1) after intestinal digestion)/(anthocyanin (mg·100 mL^−1) before digestion)×100

[2] = Intestinal stability of anthocyanins in extracts, standardized in vitro digestion (simulated intestinal fluid, pancreatin, bile, pH 7); conditions: for Intestinal stability: % of undigested; for Post-Intestinal concentration: mean ± SD n = 3
Method: as §1, §2

[3] = In vitro bioaccessibility after digestion of matrix-containing powder; conditions: for Post-digestion concentration (bioaccessible fraction): mean ± SD n = 3
Method: as §1
After digestion of the powdered samples, an ultracentrifugation (Beckman L7 ultracentrifuge, Palo, Alto, CA, USA) at 165,000× g, 4 °C, 65 min, was performed to separate soluble and non-soluble fractions. The supernatant, containing the bioaccessible anthocyanins, was isolated. For the determination of anthocyanins, the digest was acidified with formic acid (1%) to stabilize the compounds, prior to the quantification by high performance liquid chromatography (HPLC). Results are shown as the ratio of the bioaccessible compound concentration to the initial compound concentration in the sample, as indicated in Equation (3). (3) Bioaccessibility (%)=(anthocyanin (mg.100 g^−1) after digestion)/(anthocyanin (mg.100 g^−1) before digestion)×100

[4] = co-digestion of black carrot and strawberry extracts
[5] = co-digestion of black carrot and strawberry extracts, mean ± SD n = 3
[6] = single digestion, liquid extract, 2 h 37 °C pH 3.0, mean ± SD n = 3
[7] = single digestion, liquid extract
[8] = single digestion, liquid extract, pH 7, 2 h 37 °C
[9] = co-digestion of black carrot and strawberry powder
[10] = single digestion, matrix-containing powder

Row | SMILES | Gastric stability [1, 4] | Post-Gastric concentration [1, 5] | Post-Gastric concentration [1, 6] | Gastric stability [1, 7] | Intestinal stability [2, 4] | Post-Intestinal concentration [2, 4] | Intestinal stability [2, 7] | Post-Intestinal concentration [2, 8] | Bioaccessibility [3, 9] | Bioaccessibility [3, 10] | Post-digestion concentration (bioaccessible fraction) [3, 9] | Post-digestion concentration (bioaccessible fraction) [3, 10]
1 | O=C(/C=C/c1ccc(O)cc1)OC[C@H]1O[C@@H](OC[C@H]2O[C@@H](Oc3cc4c(O)cc(O)cc4[o+]c3-c3ccc(O)c(O)c3)[C@H](O[C@@H]3OC[C@@H](O)[C@H](O)[C@H]3O)[C@@H](O)[C@H]2O)[C@H](O)[C@@H](O)[C@@H]1O [Cyanidin-3-xylosyl-coumaroyl-glucosyl-galactoside] | 66% | 1.16 ± 0.02 mg/100 mL of extract | 1.14 ± 0.01 mg/100 mL of extract | 65% | 42% | 0.75 ± 0.04 mg/100 mL of extract | 48% | 0.85 ± 0.07 mg/100 mL of extract | 52% | 28% | 105.2 ± 0.9 mg/100 g of sample (dry weight) | 55.8 ± 5.2 mg/100 g of sample (dry weight)
2 | OC[C@H]1O[C@@H](OC[C@H]2O[C@@H](Oc3cc4c(O)cc(O)cc4[o+]c3-c3ccc(O)c(O)c3)[C@H](O[C@@H]3OC[C@@H](O)[C@H](O)[C@H]3O)[C@@H](O)[C@H]2O)[C@H](O)[C@@H](O)[C@@H]1O [Cyanidin-3-xylosyl-glucosyl-galactoside] | 56% | 0.24 ± 0.02 mg/100 mL of extract | 0.25 ± 0.01 mg/100 mL of extract | 59% | 99% | 0.42 ± 0.00 mg/100 mL of extract | 86% | 0.36 ± 0.00 mg/100 mL of extract | 105% | 62% | 50.5 ± 9.2 mg/100 g of sample (dry weight) | 29.7 ± 3.7 mg/100 g of sample (dry weight)
3 | OC[C@H]1O[C@@H](Oc2cc3c(O)cc(O)cc3[o+]c2-c2ccc(O)c(O)c2)[C@H](O[C@@H]2OC[C@@H](O)[C@H](O)[C@H]2O)[C@@H](O)[C@H]1O [Cyanidin-3-xylosyl-galactoside] | 83% | 0.98 ± 0.02 mg/100 mL of extract | 0.95 ± 0.00 mg/100 mL of extract | 81% | 92% | 1.09 ± 0.01 mg/100 mL of extract | 79% | 0.94 ± 0.01 mg/100 mL of extract | 84% | 33% | 113.8 ± 0.2 mg/100 g of sample (dry weight) | 44.1 ± 4.4 mg/100 g of sample (dry weight)
4 | COc1cc(/C=C/C(=O)OC[C@H]2O[C@@H](OC[C@H]3O[C@@H](Oc4cc5c(O)cc(O)cc5[o+]c4-c4ccc(O)c(O)c4)[C@H](O[C@@H]4OC[C@@H](O)[C@H](O)[C@H]4O)[C@@H](O)[C@H]3O)[C@H](O)[C@@H](O)[C@@H]2O)ccc1O [Cyanidin-3-xylosyl-feruloyl-glucosyl-galactoside] | 86% | 8.28 ± 0.03 mg/100 mL of extract | 8.23 ± 0.04 mg/100 mL of extract | 86% | 60% | 5.81 ± 0.03 mg/100 mL of extract | 58% | 5.54 ± 0.05 mg/100 mL of extract | 48% | 34% | 528.3 ± 15.0 mg/100 g of sample (dry weight) | 378.4 ± 26.1 mg/100 g of sample (dry weight)

More lines, main results first:

Row | Gastric stability [1, 4] | Post-Gastric concentration [1, 5] | Post-Gastric concentration [1, 6] | Gastric stability [1, 7] | Intestinal stability [2, 4] | Post-Intestinal concentration [2, 4] | Intestinal stability [2, 7] | Post-Intestinal concentration [2, 8] | Bioaccessibility [3, 9] | Bioaccessibility [3, 10] | SMILES | Post-digestion concentration (bioaccessible fraction) [3, 9] | Post-digestion concentration (bioaccessible fraction) [3, 10]
5 | 92% | 3.57 ± 0.07 mg/100 mL of extract | 3.37 ± 0.01 mg/100 mL of extract | 87% | 49% | 1.91 ± 0.02 mg/100 mL of extract | 46% | 1.77 ± 0.01 mg/100 mL of extract | 36% | 34% | O=C(O)CC(=O)OC[C@H]1O[C@@H](Oc2cc3c(O)cc(O)cc3[o+]c2-c2ccc(O)cc2)[C@H](O)[C@@H](O)[C@@H]1O [Pelargonidin-3-malonyl-glucoside] | 81.3 ± 6.6 mg/100 g of sample (dry weight) | 76.2 ± 1.8 mg/100 g of sample (dry weight)
6 | 76% | 12.63 ± 0.46 mg/100 mL of extract | 11.13 ± 0.09 mg/100 mL of extract | 90% | 35% | 5.78 ± 0.13 mg/100 mL of extract | 49% | 6.01 ± 0.02 mg/100 mL of extract | 28% | 36% | OC[C@H]1O[C@@H](Oc2cc3c(O)cc(O)cc3[o+]c2-c2ccc(O)cc2)[C@H](O)[C@@H](O)[C@@H]1O [Pelargonidin-3-glucoside] | 272.5 ± 19.7 mg/100 g of sample (dry weight) | 256.6 ± 8.3 mg/100 g of sample (dry weight)
